# Patent US9655884B2, “Antiparasitic use of isoxazoline compounds” (Intervet Inc., priority 2013, dated 2017)
# Test system: adult fleas (C. felis)
# Experiment: In vitro membrane feeding exposure to assess flea reproduction
# Set-up: species or system Ctenocephalides felis
# Conditions: for Effect on hatching of larvae: flea groups able to lay eggs, all concentrations
# Description: A membrane feeding method [Wade S E, Georgi J R. Survival and reproduction of artificially fed cat fleas, Ctenocephalides felis Bouché (Siphonaptera: Pulicidae). J Med Entomol 1988, 25: 186-190.] was modified to assess the impact of fluralaner exposure on flea reproduction. Defibrinated sheep blood was prepared in a series of dilutions with fluralaner to obtain concentrations between 50.0 and 0.09 ng/mL. These test solutions were prepared twice and each preparation was tested in duplicate resulting in a total of 4 replicates per concentration, along with a fluralaner negative solvent control (a solvent concentration equivalent to that of the highest concentrated fluralaner test solution) and an untreated control.
# Unfed adult fleas (C. felis; 20 males and 20 females) were placed into a plastic unit that was then closed with a gauze lid. A grid inside the plastic unit divided the unit into 2 chambers, an upper chamber for flea feeding and a lower chamber for egg collection. Test or control blood preparations (2 ml) were placed in an artificial membrane closed glass tube that was then placed on the plastic unit as the food source. Feeding units were incubated (38° C. and 60% RH) for 10 days. Test and negative control blood preparations were freshly prepared and exchanged (on days 1, 3, 5, and 8) to permit continuous flea feeding. Fleas were transferred into fresh plastic units on Days 5 and 8 to facilitate egg collection. Collected eggs were mixed with flea nourishment medium and incubated (28° C. and 80% RH) in darkness for 22 (±3) days to enable flea development. Parameters recorded were flea survival, oviposition control, egg hatchability, pupa control, flea-emergence control and reproduction inhibition.
# [1] = eggs of parent fleas fed 0.09 ng/mL in blood, exposure day 9
# [2] = eggs of parent fleas fed 0.09 ng/mL in blood, exposure day 10
# [3] = eggs of parent fleas fed 0.19 ng/mL in blood, exposure day 3
# [4] = eggs of parent fleas fed 0.19 ng/mL in blood, exposure day 4
# [5] = eggs of parent fleas fed 0.19 ng/mL in blood, exposure day 5
# [6] = eggs of parent fleas fed 0.19 ng/mL in blood, exposure day 8
# [7] = eggs of parent fleas fed 0.19 ng/mL in blood, exposure day 9
# [8] = eggs of parent fleas fed 0.19 ng/mL in blood, exposure day 10
# [9] = eggs of parent fleas fed 0.39 ng/mL in blood, exposure day 3
# [10] = eggs of parent fleas fed 0.39 ng/mL in blood, exposure day 4
# [11] = eggs of parent fleas fed 0.39 ng/mL in blood, exposure day 5
# [12] = eggs of parent fleas fed 0.39 ng/mL in blood, exposure day 8
# [13] = eggs of parent fleas fed 0.39 ng/mL in blood, exposure day 9
# [14] = eggs of parent fleas fed 0.39 ng/mL in blood, exposure day 10
# [15] = eggs of parent fleas fed 0.78 ng/mL in blood, exposure day 3
# [16] = eggs of parent fleas fed 0.78 ng/mL in blood, exposure day 4
# [17] = eggs of parent fleas fed 0.78 ng/mL in blood, exposure day 5
# [18] = eggs of parent fleas fed 0.78 ng/mL in blood, exposure day 8
# [19] = eggs of parent fleas fed 0.78 ng/mL in blood, exposure day 9
# [20] = eggs of parent fleas fed 0.78 ng/mL in blood, exposure day 10
# [21] = eggs of parent fleas fed 1.56 ng/mL in blood, exposure day 3
# [22] = eggs of parent fleas fed 1.56 ng/mL in blood, exposure day 4
# [23] = eggs of parent fleas fed 1.56 ng/mL in blood, exposure day 5
# [24] = eggs of parent fleas fed 1.56 ng/mL in blood, exposure day 8
# [25] = eggs of parent fleas fed 1.56 ng/mL in blood, exposure day 9
# [26] = eggs of parent fleas fed 1.56 ng/mL in blood, exposure day 10
# [27] = eggs of parent fleas fed 3.13 ng/mL in blood, exposure day 3
# [28] = eggs of parent fleas fed 3.13 ng/mL in blood, exposure day 4
# [29] = eggs of parent fleas fed 3.13 ng/mL in blood, exposure day 5
# [30] = eggs of parent fleas fed 3.13 ng/mL in blood, exposure day 8
# [31] = eggs of parent fleas fed 3.13 ng/mL in blood, exposure day 9
# [32] = eggs of parent fleas fed 3.13 ng/mL in blood, exposure day 10
# [33] = eggs of parent fleas fed 6.25 ng/mL in blood, exposure day 3
# [34] = eggs of parent fleas fed 6.25 ng/mL in blood, exposure day 4
# [35] = eggs of parent fleas fed 6.25 ng/mL in blood, exposure day 5
# [36] = eggs of parent fleas fed 6.25 ng/mL in blood, exposure day 8
# [37] = eggs of parent fleas fed 6.25 ng/mL in blood, exposure day 9
# [38] = eggs of parent fleas fed 6.25 ng/mL in blood, exposure day 10
# [39] = eggs of parent fleas fed 12.5 ng/mL in blood, exposure day 3
# [40] = eggs of parent fleas fed 12.5 ng/mL in blood, exposure day 8
# [41] = eggs of parent fleas fed 12.5 ng/mL in blood, exposure day 9
smiles,measurement,setting,value
"Cc1cc(C2=NOC(c3cc(Cl)cc(Cl)c3)(C(F)(F)F)C2)ccc1C(=O)NCC(=O)NCC(F)(F)F (centres unmarked) [fluralaner, 4-[5-(3,5-Dichlorophenyl)-5-trifluoromethyl-4,5-dihydroisoxazol-3-yl]-2-methyl-N-[(2,2,2-trifluoro-ethylcarbamoyl)-methyl]-benzamide]",Pupal Development Control,"eggs of parent fleas fed 0.09 ng/mL in blood, exposure day 8",0%
same,Larval Emergence,[1],yes
same,Pupal Development Control,[1],5.9%
same,Larval Emergence,[2],yes
same,Pupal Development Control,[2],2.9%
same,Pupal Development Control,"eggs of parent fleas fed 0.19 ng/mL in blood, arithmetic mean of exposure days",3.1%
same,Larval Emergence,[3],yes
same,Pupal Development Control,[3],8.8%
same,Larval Emergence,[4],yes
same,Pupal Development Control,[4],0.2%
same,Larval Emergence,[5],yes
same,Pupal Development Control,[5],6.8%
same,Larval Emergence,[6],yes
same,Pupal Development Control,[6],0%
same,Larval Emergence,[7],yes
same,Pupal Development Control,[7],2.7%
same,Larval Emergence,[8],yes
same,Pupal Development Control,[8],0%
same,Pupal Development Control,"eggs of parent fleas fed 0.39 ng/mL in blood, arithmetic mean of exposure days",3.6%
same,Larval Emergence,[9],yes
same,Pupal Development Control,[9],9.8%
same,Larval Emergence,[10],yes
same,Pupal Development Control,[10],0%
same,Larval Emergence,[11],yes
same,Pupal Development Control,[11],1.5%
same,Larval Emergence,[12],yes
same,Pupal Development Control,[12],3.3%
same,Larval Emergence,[13],yes
same,Pupal Development Control,[13],6.3%
same,Larval Emergence,[14],yes
same,Pupal Development Control,[14],0.8%
same,Pupal Development Control,"eggs of parent fleas fed 0.78 ng/mL in blood, arithmetic mean of exposure days",12.1%
same,Larval Emergence,[15],yes
same,Pupal Development Control,[15],7.5%
same,Larval Emergence,[16],yes
same,Pupal Development Control,[16],11.4%
same,Larval Emergence,[17],yes
same,Pupal Development Control,[17],16.7%
same,Larval Emergence,[18],yes
same,Pupal Development Control,[18],10.8%
same,Larval Emergence,[19],yes
same,Pupal Development Control,[19],11.9%
same,Larval Emergence,[20],yes
same,Pupal Development Control,[20],14.5%
same,Pupal Development Control,"eggs of parent fleas fed 1.56 ng/mL in blood, arithmetic mean of exposure days",35.1%
same,Larval Emergence,[21],yes
same,Pupal Development Control,[21],35.3%
same,Larval Emergence,[22],yes
same,Pupal Development Control,[22],36.3%
same,Larval Emergence,[23],yes
same,Pupal Development Control,[23],34.6%
same,Larval Emergence,[24],yes
same,Pupal Development Control,[24],35.5%
same,Larval Emergence,[25],yes
same,Pupal Development Control,[25],41.6%
same,Larval Emergence,[26],yes
same,Pupal Development Control,[26],27.2%
same,Pupal Development Control,"eggs of parent fleas fed 3.13 ng/mL in blood, arithmetic mean of exposure days",64.5%
same,Larval Emergence,[27],yes
same,Pupal Development Control,[27],66.3%
same,Larval Emergence,[28],yes
same,Pupal Development Control,[28],68.9%
same,Larval Emergence,[29],yes
same,Pupal Development Control,[29],61.7%
same,Larval Emergence,[30],yes
same,Pupal Development Control,[30],70.3%
same,Larval Emergence,[31],yes
same,Pupal Development Control,[31],62.1%
same,Larval Emergence,[32],yes
same,Pupal Development Control,[32],57.4%
same,Pupal Development Control,"eggs of parent fleas fed 6.25 ng/mL in blood, arithmetic mean of exposure days",88.7%
same,Larval Emergence,[33],yes
same,Pupal Development Control,[33],90.2%
same,Larval Emergence,[34],yes
same,Pupal Development Control,[34],92.4%
same,Larval Emergence,[35],yes
same,Pupal Development Control,[35],87.3%
same,Larval Emergence,[36],yes
same,Pupal Development Control,[36],86.4%
same,Larval Emergence,[37],yes
same,Pupal Development Control,[37],89.9%
same,Larval Emergence,[38],yes
same,Pupal Development Control,[38],86.0%
same,Pupal Development Control,"eggs of parent fleas fed 12.5 ng/mL in blood, arithmetic mean of exposure days",85.1%
same,Larval Emergence,[39],no
same,Pupal Development Control,[39],100%
same,Larval Emergence,[40],yes
same,Pupal Development Control,[40],55.2%
same,Larval Emergence,[41],yes
same,Pupal Development Control,[41],100%
same,Effect on hatching of larvae,,does not affect the hatching of larvae
same,Effect on hatching of larvae,listed as Fluralaner,did not affect the hatching of larvae
same,Adult Flea Emergence Control,"parent fleas fed 0.09 ng/mL in blood, arithmetic mean of exposure days",0.3%
same,Adult Flea Emergence Control,"parent fleas fed 0.09 ng/mL in blood, exposure day 3",1.1%
same,Adult Flea Emergence Control,"parent fleas fed 0.09 ng/mL in blood, exposure day 4",0.5%
same,Adult Flea Emergence Control,"parent fleas fed 0.09 ng/mL in blood, exposure day 5",0%
same,Adult Flea Emergence Control,"parent fleas fed 0.09 ng/mL in blood, exposure day 8",0%
same,Adult Flea Emergence Control,"parent fleas fed 0.09 ng/mL in blood, exposure day 9",0%
same,Adult Flea Emergence Control,"parent fleas fed 0.09 ng/mL in blood, exposure day 10",0%
same,Adult Flea Emergence Control,"parent fleas fed 0.19 ng/mL in blood, arithmetic mean of exposure days",2.2%
same,Adult Flea Emergence Control,"parent fleas fed 0.19 ng/mL in blood, exposure day 3",4.6%
same,Adult Flea Emergence Control,"parent fleas fed 0.19 ng/mL in blood, exposure day 4",0%
same,Adult Flea Emergence Control,"parent fleas fed 0.19 ng/mL in blood, exposure day 5",1.3%
same,Adult Flea Emergence Control,"parent fleas fed 0.19 ng/mL in blood, exposure day 8",0.8%
same,Adult Flea Emergence Control,"parent fleas fed 0.19 ng/mL in blood, exposure day 9",6.7%
same,Adult Flea Emergence Control,"parent fleas fed 0.19 ng/mL in blood, exposure day 10",0%
same,Adult Flea Emergence Control,"parent fleas fed 0.39 ng/mL in blood, arithmetic mean of exposure days",1.1%
same,Adult Flea Emergence Control,"parent fleas fed 0.39 ng/mL in blood, exposure day 3",0%
same,Adult Flea Emergence Control,"parent fleas fed 0.39 ng/mL in blood, exposure day 4",0%
same,Adult Flea Emergence Control,"parent fleas fed 0.39 ng/mL in blood, exposure day 5",0%
same,Adult Flea Emergence Control,"parent fleas fed 0.39 ng/mL in blood, exposure day 8",1.6%
same,Adult Flea Emergence Control,"parent fleas fed 0.39 ng/mL in blood, exposure day 9",5.2%
same,Adult Flea Emergence Control,"parent fleas fed 0.39 ng/mL in blood, exposure day 10",0%
same,Adult Flea Emergence Control,"parent fleas fed 0.78 ng/mL in blood, arithmetic mean of exposure days",1.5%
same,Adult Flea Emergence Control,"parent fleas fed 0.78 ng/mL in blood, exposure day 3",3.8%
same,Adult Flea Emergence Control,"parent fleas fed 0.78 ng/mL in blood, exposure day 4",0%
same,Adult Flea Emergence Control,"parent fleas fed 0.78 ng/mL in blood, exposure day 5",0%
same,Adult Flea Emergence Control,"parent fleas fed 0.78 ng/mL in blood, exposure day 8",3.1%
same,Adult Flea Emergence Control,"parent fleas fed 0.78 ng/mL in blood, exposure day 9",1.8%
same,Adult Flea Emergence Control,"parent fleas fed 0.78 ng/mL in blood, exposure day 10",0%
same,Adult Flea Emergence Control,"parent fleas fed 1.56 ng/mL in blood, arithmetic mean of exposure days",1.7%
same,Adult Flea Emergence Control,"parent fleas fed 1.56 ng/mL in blood, exposure day 3",0%
same,Adult Flea Emergence Control,"parent fleas fed 1.56 ng/mL in blood, exposure day 4",0%
same,Adult Flea Emergence Control,"parent fleas fed 1.56 ng/mL in blood, exposure day 5",0%
same,Adult Flea Emergence Control,"parent fleas fed 1.56 ng/mL in blood, exposure day 8",10.2%
same,Adult Flea Emergence Control,"parent fleas fed 1.56 ng/mL in blood, exposure day 9",0%
same,Adult Flea Emergence Control,"parent fleas fed 1.56 ng/mL in blood, exposure day 10",0%
same,Adult Flea Emergence Control,"parent fleas fed 3.13 ng/mL in blood, arithmetic mean of exposure days",5.9%
same,Adult Flea Emergence Control,"parent fleas fed 3.13 ng/mL in blood, exposure day 3",4.4%
same,Adult Flea Emergence Control,"parent fleas fed 3.13 ng/mL in blood, exposure day 4",11.9%
same,Adult Flea Emergence Control,"parent fleas fed 3.13 ng/mL in blood, exposure day 5",3.2%
same,Adult Flea Emergence Control,"parent fleas fed 3.13 ng/mL in blood, exposure day 8",8.6%
same,Adult Flea Emergence Control,"parent fleas fed 3.13 ng/mL in blood, exposure day 9",7.5%
same,Adult Flea Emergence Control,"parent fleas fed 3.13 ng/mL in blood, exposure day 10",0%
same,Adult Flea Emergence Control,"parent fleas fed 6.25 ng/mL in blood, arithmetic mean of exposure days",11.5%
same,Adult Flea Emergence Control,"parent fleas fed 6.25 ng/mL in blood, exposure day 3",29.2%
same,Adult Flea Emergence Control,"parent fleas fed 6.25 ng/mL in blood, exposure day 4",0%
same,Adult Flea Emergence Control,"parent fleas fed 6.25 ng/mL in blood, exposure day 5",0%
same,Adult Flea Emergence Control,"parent fleas fed 6.25 ng/mL in blood, exposure day 8",9.2%
same,Adult Flea Emergence Control,"parent fleas fed 6.25 ng/mL in blood, exposure day 9",30.8%
same,Adult Flea Emergence Control,"parent fleas fed 6.25 ng/mL in blood, exposure day 10",0%
same,Adult Flea Emergence Control,"parent fleas fed 12.5 ng/mL in blood, arithmetic mean of exposure days",100%
same,Adult Flea Emergence Control,"parent fleas fed 12.5 ng/mL in blood, exposure day 8",100%
